Source: article PMC11952508 (bioRxiv, 2025)

How the values were obtained:
Assay in all cases: in vitro NanoGlo kinase activity assay, n=[…]
Type in all cases: biochemical
CLK1 = CLK1 (Homo sapiens, UniProt P49759)
CLK2 = CLK2 (Homo sapiens, UniProt P49760)
CLK3 = CLK3 (Homo sapiens, UniProt P49761)
CLK3, sequence (P49761 whole entry): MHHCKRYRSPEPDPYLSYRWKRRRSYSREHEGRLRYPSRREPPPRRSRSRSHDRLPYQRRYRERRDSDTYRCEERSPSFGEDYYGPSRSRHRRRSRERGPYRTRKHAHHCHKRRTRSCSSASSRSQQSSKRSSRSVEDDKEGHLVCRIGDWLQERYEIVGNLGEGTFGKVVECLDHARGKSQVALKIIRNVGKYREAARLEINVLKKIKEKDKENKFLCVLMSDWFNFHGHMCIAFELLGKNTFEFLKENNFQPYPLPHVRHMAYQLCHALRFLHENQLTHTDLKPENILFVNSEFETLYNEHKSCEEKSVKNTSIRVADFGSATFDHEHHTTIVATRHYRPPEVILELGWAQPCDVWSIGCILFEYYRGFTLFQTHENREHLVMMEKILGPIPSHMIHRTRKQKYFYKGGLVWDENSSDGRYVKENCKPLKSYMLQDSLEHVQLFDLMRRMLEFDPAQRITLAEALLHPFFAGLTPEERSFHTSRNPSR

CLK2, sequence (P49760 whole entry): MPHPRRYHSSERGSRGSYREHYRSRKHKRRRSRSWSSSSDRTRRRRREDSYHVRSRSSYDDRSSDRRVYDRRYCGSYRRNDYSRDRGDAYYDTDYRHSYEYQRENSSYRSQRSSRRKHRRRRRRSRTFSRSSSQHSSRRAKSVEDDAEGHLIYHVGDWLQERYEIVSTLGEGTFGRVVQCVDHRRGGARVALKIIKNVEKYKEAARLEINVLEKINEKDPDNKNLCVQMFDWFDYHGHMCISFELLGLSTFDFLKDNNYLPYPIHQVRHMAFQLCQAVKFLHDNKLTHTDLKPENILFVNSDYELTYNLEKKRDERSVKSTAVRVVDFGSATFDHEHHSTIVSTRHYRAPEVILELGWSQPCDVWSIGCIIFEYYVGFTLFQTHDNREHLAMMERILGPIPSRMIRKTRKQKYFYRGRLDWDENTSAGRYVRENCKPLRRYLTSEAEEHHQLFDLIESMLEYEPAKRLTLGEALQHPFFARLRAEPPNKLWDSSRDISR
CLK1, sequence (P49759 whole entry): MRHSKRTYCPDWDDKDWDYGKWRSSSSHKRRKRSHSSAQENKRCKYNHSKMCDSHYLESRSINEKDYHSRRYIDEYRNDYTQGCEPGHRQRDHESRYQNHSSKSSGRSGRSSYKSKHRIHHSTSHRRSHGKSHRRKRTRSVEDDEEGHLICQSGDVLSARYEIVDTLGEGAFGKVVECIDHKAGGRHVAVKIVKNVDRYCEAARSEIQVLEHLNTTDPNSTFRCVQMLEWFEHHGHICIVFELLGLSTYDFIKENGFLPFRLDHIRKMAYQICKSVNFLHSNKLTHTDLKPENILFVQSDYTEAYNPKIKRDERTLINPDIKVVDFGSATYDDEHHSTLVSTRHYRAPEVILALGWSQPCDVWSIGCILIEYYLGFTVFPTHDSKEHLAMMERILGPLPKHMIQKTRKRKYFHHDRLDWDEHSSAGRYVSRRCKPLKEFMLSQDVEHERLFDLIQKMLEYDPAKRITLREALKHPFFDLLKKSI

IC50 (CLK1): 446 nM | IC50 (CLK2): 605 nM | IC50 (CLK3): 6800 nM
SMILES: O=C(Nc1cc(C2CCCC2)n[nH]1)c1ccc2c(c1)[nH]c(=O)n2C1CCCC1 [SR-1815]
